Experimental data reported in US12214047B2, “FAP-activated proteasome inhibitors for treating solid tumors” (Trustees of Tufts College, priority 2011, dated 2025).
Entries after “also recorded” stand apart in the source; their conditions may differ.

Experiments:
[1] = test system: FAP-transfected HEK tumor xenograft; assay: Anticancer activity in FAP-transfected HEK tumor xenograft, 40-day study; assay type: in vivo, mice
Excerpt: Having determined the levels of FAP expression in the HEK xenograft model, the anticancer activity of ARI-3996 was next evaluated in a 40-day study. […] It also suffers conformation-dependent inactivation over time.

[2] = Maximum tolerated dose in mice; assay type: in vivo
[3] = Tissue distribution of Velcade, ARI-3996 and ARI-2727D in mice; assay type: in vivo
Description: ARI-3996 is cleaved to ARI-2727D in and around tumors, thus facilitating the buildup of ARI-2727D in tumors.
Velcade®'s high toxicity would also result from the accumulation of the drug in the organs at the expense of accumulation in the tumor. […] Thus ARI-2727D is being selectively delivered to solid tumors via FAP activation of ARI-3996.
Finally, FAP activation was verified as the mode by which ARI-2727D tumor accumulation was taking place. In FIG. 24, ARI-2727D concentrations at 1 hour post-injection were compared with ARI-2727D concentrations 1 hour after injection of the prodrug form (ARI-3996).

[4] = test system: MM cell lines; assay: Cytotoxicity toward Multiple Myeloma cell lines; assay type: cell-based; conditions: various MM cell lines
[5] = test system: normal cells; assay: Cytotoxicity toward normal cells; assay type: cell-based
[6] = test system: solid tumors; assay: Cytotoxicity toward solid tumors; assay type: cell-based
[7] = test system: U266 tumor xenografts; assay: Anticancer effects in U266 tumor-bearing mice (ELISA and bioluminescence); assay type: in vivo; conditions: ARI-3996 50 mg/kg, Velcade 0.5 mg/kg, twice a week for 2 weeks
Description: ARI-3996 consistently outperformed Velcade® in a mouse MM model. Mice bearing U266 tumor xenografts (2 female, 2 male) were treated with either the vehicle, ARI-3996, or Velcade® twice a week (day 1 and day 4) for 2 weeks. […] The inhibition of the tumor was evaluated using ELISA (μg/mL) and bioluminescence.

[8] = test system: HPAF-II carcinoma xenografts; conditions: HPAF-II xenograft; ARI-3996 100 mg/kg i.p., bortezomib 1 mg/kg
Description: ARI-3996 and bortezomib were administered twice weekly (day (D)1/D4 schedule), and ARI-3996 was also given from day 1 to day 5 for 5 consecutive days (QD×5 schedule).
One-way ANOVA with Dunnett's post test for test versus vehicle (P<0.0001).
ARI-3996 b.i.d. s.c. and gemcitabine once per day i.p. were administered twice weekly. Mean±SEM.

[9] = test system: FAP; assay: Activation of ARI-3996 to release ARI-2727 in FAP knockout versus FAP+ mice; assay type: in vivo; conditions: FAP+ mice treated with ARI-3996
Description: Mouse models may over-report systemic toxicity of ARI-3996 compared with that possible in cancer patients. This was further verified by treatment of FAP knockout mice with ARI-3996. In knockout mice (FIG. 21), no activation of ARI-3996 to release ARI-2727 took place, whereas in FAP+ mice a concentration of the released warhead ARI-2727 of 150 ng/mL was reached.

[10] = mice bearing PC3 prostate tumors; cited from earlier work
[11] = target: DPP8 (Homo sapiens, UniProt Q6V1X1); assay: In vitro cleavage of fluorogenic substrate ARI-3144 (AMC fluorescence); assay type: biochemical; conditions: fluorescence of released AMC
Excerpt: (§1) Cleavage was monitored by measuring fluorescence of the AMC leaving group (excitation, 355 nm; emission, 460 nm).
(§2) The D-alanine at P2 of the fluorogenic substrate, N-(Quinoline-4-carbonyl)-D-Ala-Pro-AMC [AMC=7-amino-4-methylcoumarin] (ARI-3144), confers selectivity for FAP so that it is cleaved to release fluorescent AMC by recombinant FAP but not by other DPP-IV-like proteases (FIG. 3). […] FAP is reportedly not expressed constitutively in healthy tissue with the exception of endometrium, although FAP proteolytic activity is detectable in plasma. […] The ability to measure FAP proteolytic activity in tumors is required to evaluate the usefulness of ARI-3996 as a chemotherapeutic agent. Hitherto, FAP activity has not been quantified in human or mouse tumors. […] We will use the assay to select a mouse tumor model for investigation of ARI-3996's activity in which the increase in tumor-associated FAP activity relative to plasma is equivalent to that in human epithelial cancer.

[12] = target: DPP9 (Homo sapiens, UniProt Q86TI2); assay: as above; assay type: biochemical; conditions: fluorescence of released AMC
Excerpt: as §1, §2

[13] = target: DPPIV (Homo sapiens, UniProt P27487); assay: as above; assay type: biochemical; conditions: fluorescence of released AMC
Excerpt: as §1, §2

[14] = target: T1, PREP (Homo sapiens, UniProt P48147); assay: as above; assay type: biochemical; conditions: fluorescence of released AMC
T1 sequence (P48147 1-710): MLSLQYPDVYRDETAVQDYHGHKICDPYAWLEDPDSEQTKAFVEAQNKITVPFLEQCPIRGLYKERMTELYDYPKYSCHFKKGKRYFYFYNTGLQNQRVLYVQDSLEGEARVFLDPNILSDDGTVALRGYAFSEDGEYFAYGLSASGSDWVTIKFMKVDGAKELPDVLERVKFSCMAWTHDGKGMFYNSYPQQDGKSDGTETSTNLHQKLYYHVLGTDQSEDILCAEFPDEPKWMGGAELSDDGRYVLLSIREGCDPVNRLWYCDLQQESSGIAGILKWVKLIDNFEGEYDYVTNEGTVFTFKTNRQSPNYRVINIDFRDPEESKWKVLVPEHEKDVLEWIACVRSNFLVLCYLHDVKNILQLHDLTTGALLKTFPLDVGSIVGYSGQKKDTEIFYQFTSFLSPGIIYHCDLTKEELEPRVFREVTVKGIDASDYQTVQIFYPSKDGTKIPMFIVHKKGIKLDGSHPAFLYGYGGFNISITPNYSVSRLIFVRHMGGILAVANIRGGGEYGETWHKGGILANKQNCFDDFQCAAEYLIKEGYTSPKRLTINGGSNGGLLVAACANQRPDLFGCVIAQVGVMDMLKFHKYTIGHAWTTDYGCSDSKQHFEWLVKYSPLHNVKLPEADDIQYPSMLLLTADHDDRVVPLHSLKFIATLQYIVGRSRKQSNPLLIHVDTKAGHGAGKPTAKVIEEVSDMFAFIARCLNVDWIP
Excerpt: as §1, §2

[15] = target: T2, recombinant FAP (Homo sapiens, UniProt Q12884); assay: as above; assay type: biochemical; conditions: fluorescence of released AMC
T2 sequence (Q12884 1-760): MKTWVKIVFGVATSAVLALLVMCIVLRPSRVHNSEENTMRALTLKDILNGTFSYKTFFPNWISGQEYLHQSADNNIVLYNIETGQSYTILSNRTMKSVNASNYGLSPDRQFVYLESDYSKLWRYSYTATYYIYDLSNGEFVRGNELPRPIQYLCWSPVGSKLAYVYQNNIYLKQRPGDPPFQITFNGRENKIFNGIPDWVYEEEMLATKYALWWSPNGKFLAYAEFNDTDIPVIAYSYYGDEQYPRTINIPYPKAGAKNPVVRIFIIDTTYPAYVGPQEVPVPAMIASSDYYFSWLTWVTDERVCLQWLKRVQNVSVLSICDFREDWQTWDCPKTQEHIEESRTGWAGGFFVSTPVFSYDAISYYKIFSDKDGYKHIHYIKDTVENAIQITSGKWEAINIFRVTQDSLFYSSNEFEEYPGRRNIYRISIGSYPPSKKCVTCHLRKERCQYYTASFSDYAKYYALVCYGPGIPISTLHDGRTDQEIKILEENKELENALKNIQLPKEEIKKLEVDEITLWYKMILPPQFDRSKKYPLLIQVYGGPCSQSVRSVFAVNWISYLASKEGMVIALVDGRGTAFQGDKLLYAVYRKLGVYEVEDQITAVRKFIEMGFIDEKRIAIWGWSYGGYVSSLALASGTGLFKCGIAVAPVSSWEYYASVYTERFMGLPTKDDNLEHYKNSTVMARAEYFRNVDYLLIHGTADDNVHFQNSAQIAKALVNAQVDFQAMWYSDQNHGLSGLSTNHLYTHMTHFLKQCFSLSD
Excerpt: as §1, §2

[16] = target: DPPII (Homo sapiens, UniProt Q9UHL4); assay: as above; assay type: biochemical; conditions: fluorescence of released AMC
Excerpt: as §2

Sequence of DPP9 (Q86TI2 whole entry, species assumed): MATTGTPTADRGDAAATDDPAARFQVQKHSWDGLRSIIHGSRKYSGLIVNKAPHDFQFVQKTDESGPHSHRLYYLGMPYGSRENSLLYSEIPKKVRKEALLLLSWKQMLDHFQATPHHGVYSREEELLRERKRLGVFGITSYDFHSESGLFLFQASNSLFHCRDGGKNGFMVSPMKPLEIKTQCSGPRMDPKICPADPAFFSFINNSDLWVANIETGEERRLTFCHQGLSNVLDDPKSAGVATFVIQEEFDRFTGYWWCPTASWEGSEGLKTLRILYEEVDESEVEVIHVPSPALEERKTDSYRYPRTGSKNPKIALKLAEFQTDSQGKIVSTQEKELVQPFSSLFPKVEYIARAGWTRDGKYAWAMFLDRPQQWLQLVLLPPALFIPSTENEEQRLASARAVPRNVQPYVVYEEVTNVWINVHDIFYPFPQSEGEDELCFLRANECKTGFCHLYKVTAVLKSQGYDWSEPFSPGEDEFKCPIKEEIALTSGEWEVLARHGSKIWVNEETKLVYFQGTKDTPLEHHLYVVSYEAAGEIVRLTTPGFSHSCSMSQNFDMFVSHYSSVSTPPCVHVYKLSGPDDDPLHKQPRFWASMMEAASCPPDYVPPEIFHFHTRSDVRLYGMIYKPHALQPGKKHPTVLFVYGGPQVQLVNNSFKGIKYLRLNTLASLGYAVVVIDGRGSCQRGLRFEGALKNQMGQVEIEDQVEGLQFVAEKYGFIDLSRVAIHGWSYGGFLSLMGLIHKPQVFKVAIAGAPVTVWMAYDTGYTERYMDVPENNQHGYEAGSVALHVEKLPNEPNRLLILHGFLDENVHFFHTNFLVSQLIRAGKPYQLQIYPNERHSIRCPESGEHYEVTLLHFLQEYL
Sequence of DPPIV (P27487 whole entry, species assumed): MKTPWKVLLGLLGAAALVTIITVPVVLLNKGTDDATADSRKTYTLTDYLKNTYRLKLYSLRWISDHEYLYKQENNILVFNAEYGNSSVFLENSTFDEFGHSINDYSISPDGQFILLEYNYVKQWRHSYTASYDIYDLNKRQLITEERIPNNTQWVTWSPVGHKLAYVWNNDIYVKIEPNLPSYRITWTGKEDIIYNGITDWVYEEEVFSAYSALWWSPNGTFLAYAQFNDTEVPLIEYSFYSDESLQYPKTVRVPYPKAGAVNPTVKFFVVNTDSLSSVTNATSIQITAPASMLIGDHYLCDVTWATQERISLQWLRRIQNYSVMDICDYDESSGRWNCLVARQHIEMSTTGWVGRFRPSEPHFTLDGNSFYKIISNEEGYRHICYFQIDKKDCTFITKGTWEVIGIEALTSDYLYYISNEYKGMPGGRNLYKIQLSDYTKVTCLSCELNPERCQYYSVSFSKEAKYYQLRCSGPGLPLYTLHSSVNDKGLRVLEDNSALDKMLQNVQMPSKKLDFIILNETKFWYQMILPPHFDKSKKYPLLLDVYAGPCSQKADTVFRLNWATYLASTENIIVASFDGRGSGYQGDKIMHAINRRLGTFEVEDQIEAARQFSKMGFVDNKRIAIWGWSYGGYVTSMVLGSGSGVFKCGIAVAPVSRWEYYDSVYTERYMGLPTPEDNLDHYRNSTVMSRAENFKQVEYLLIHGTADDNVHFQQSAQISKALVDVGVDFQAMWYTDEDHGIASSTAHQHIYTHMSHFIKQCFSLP
Sequence of DPP8 (Q6V1X1 whole entry, species assumed): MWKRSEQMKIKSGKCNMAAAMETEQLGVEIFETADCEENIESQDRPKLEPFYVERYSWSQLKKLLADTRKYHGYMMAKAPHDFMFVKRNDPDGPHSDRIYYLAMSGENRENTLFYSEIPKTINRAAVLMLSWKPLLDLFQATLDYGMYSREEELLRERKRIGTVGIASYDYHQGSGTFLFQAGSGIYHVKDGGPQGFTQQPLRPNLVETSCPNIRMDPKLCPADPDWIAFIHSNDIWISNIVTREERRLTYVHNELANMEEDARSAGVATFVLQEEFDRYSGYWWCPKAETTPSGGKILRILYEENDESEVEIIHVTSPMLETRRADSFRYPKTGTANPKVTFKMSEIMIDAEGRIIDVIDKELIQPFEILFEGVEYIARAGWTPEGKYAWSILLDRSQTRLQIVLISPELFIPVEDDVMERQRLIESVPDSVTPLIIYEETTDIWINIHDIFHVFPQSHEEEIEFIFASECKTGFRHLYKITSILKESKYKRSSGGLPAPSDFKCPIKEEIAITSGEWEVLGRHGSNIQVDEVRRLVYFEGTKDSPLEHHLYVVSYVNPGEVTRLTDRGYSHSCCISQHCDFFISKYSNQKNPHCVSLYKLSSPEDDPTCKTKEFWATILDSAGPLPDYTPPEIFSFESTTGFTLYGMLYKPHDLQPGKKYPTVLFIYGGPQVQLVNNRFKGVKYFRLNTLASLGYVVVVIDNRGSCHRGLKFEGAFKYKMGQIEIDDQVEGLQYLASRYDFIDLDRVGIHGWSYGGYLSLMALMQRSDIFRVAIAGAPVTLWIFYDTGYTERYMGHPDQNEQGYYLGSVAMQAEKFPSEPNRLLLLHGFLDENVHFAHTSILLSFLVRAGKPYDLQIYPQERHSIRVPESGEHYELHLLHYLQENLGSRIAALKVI

For `CC(C)C[C@H](NC(=O)[C@H](Cc1ccccc1)NC(=O)c1cnccn1)B(O)O` [bortezomib, reference compound], the Tumor growth inhibition [1] was “hardly slowed the growth of the tumors”, the “MTD (maximum tolerated dose)” value [2] was 1 mg/kg and the “Tissue distribution of the administered drug” value ([3]; mouse, in vivo) was “much higher concentrations in the heart, lung, kidney, liver, spleen, and lung than in the tumor”. For the same compound, the Cytotoxicity [4] was “extremely high potency”, the Cytotoxicity [5] was “slightly lower toxicity” and the Cytotoxicity [6] was “much lower”. For the same compound, the Deaths / survival [7] was 1 and the “Antitumor effect at MTD” value [8] was “refractory; also recorded: lacks significant antitumor activity”.
For `CC(C)CC(NC(=O)C(N)Cc1cccc2ccccc12)B(O)O` (centres unmarked) [ARI-2727D, Ala(1-Nal)-boroLeu], the Tumor growth inhibition [1] was “potent tumor inhibition”, the “Concentration of the released warhead ARI-2727” value [9] was 150 ng/mL and the “Tissue distribution of ARI-2727D after injection of prodrug” value ([3]; 1 hour after injection of ARI-3996) was “highest concentration of ARI-2727D was found in the tumor”. The “Tissue distribution of ARI-2727D after direct injection” value ([3]; 1 hour post-injection of ARI-2727D) was “highest concentration of the drug accumulating in the kidneys and lung”, the “Tissue distribution of ARI-2727D formed from ARI-3996” value ([3]; mice given ARI-3996) was “much higher relative concentrations in the tumor” and the Cytotoxicity [4] was “extremely high potency”. For the same compound, the Cytotoxicity [5] was “slightly lower toxicity” and the Cytotoxicity [6] was “much lower”.
For `CC(C)C[C@H](NC(=O)[C@H](Cc1ccccc1)NC(=O)c1cnccn1)B(O)O` [^14C-bortezomib], the “Healthy organ exposure relative to tumor exposure” value [10] is given as no more than 9 fold.
For `Cc1cc(=O)oc2cc(NC(=O)[C@@H]3CCCN3C(=O)[C@@H](C)NC(=O)c3ccnc4ccccc34)ccc12` [ARI-3144, N-(Quinoline-4-carbonyl)-D-Ala-Pro-AMC], the “Cleavage by DPP8” value [11] was “no cleavage”, the “Cleavage by DPP9” value [12] was “no cleavage” and the “Cleavage by DPPIV” value [13] was “no cleavage”. For the same compound, the “Cleavage by PREP” value [14] was “no cleavage”, the “Cleavage by FAP” value [15] was “excellent substrate for FAP” and the “Cleavage by DPPII” value [16] was “no cleavage”.
